For series [1], the target named is T1, Cannabinoid receptor 2 (Homo sapiens, UniProt P34972). As to the kind of experiment: Agonist activity at human CB2 receptor expressed in yeast cells. It is filed as functional, cell-based.
Series [2] has as its target T2, Cannabinoid receptor 1 (Homo sapiens, UniProt P21554). As to the kind of experiment: Agonist activity at human CB1 receptor expressed in yeast cells. The class given is functional, cell-based.
The target of series [3] is T1, Cannabinoid receptor 2. As to the kind of experiment: Agonist activity at human CB2 receptor expressed in yeast cells relative to HU210. The class given is functional, cell-based.
Series [4] concerns Liver microsomes. The series can be described thus: Clearance in rat liver microsomes. The class given is ADME, Microsome.
Series [5] has as its target T2, Cannabinoid receptor 1. As to the kind of experiment: Agonist activity at human CB1 receptor expressed in yeast cells relative to HU210. The class given is functional, cell-based.

The structures appear in SMILES notation. Some results are limits rather than exact numbers.

T2 sequence (P21554 whole entry): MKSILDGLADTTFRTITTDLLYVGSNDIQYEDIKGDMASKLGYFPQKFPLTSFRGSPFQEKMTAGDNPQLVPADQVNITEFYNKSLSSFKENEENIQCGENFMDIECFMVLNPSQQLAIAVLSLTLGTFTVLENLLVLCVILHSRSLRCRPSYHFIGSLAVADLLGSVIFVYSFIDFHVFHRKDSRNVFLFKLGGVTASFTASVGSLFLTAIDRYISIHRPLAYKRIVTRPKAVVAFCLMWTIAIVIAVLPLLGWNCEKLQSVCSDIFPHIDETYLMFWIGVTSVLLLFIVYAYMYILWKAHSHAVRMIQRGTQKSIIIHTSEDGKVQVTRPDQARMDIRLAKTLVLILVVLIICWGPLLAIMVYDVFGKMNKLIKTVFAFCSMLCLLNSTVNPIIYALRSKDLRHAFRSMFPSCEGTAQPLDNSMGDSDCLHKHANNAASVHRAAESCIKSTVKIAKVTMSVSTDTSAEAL
T1 sequence (P34972 whole entry): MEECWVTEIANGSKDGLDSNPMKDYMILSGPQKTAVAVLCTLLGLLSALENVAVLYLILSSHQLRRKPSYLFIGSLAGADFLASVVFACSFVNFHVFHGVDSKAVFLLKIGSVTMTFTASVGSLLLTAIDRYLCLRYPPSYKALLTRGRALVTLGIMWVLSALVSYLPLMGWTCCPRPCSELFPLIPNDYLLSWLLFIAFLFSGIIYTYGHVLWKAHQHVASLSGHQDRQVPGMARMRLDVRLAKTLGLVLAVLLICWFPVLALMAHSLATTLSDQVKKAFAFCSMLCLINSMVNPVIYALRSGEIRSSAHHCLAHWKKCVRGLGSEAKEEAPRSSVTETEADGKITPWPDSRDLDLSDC

Regarding `O=C(O)c1cc(-c2cccc(Cl)c2Cl)cnc1N1CCCCCC1`, the results for the EC50 in series [1] and in series [2] were 1580 nM and more than 31600 nM, respectively. Besides, the Efficacy in series [3] turned out to be 41%.
Turning to `c1ccc(-c2ccc(N3CCCCCC3)nc2)nc1`, in series [1], the EC50 (commonly the midpoint of the concentration-response curve) was 10000 nM. In series [3], this compound showed an Efficacy of 29%.
For the compound `Clc1cccc(-c2ccc(N3CCCCCC3)nc2)c1Cl`, the EC50 was 39.8 nM in series [1] and 10000 nM in series [2]. Also, the CL in series [4] was determined as 30 mL/min/g. The figures for the Efficacy in series [5] and in series [3] were 4% and 104%, respectively.
`Clc1ccccc1-c1ccc(N2CCOCC2)nc1` had an EC50 in series [1] of 398 nM. In series [3], this compound gave an Efficacy of 43%.
With `Cc1c(Cl)cccc1-c1ccc(N2CCOCC2)nc1`, in series [1], it took 501 nM to reach a half-maximal effect (EC50). Besides, the Efficacy in series [3] was determined as 73%.
Turning to `Clc1ccc(Cl)c(-c2ccc(N3CCOCC3)nc2)c1`, the EC50 in series [1] was 631 nM. The compound also registered an Efficacy in series [3] of 25%.
The compound `Clc1ccc(-c2ccc(N3CCOCC3)nc2)c(Cl)c1` gave an EC50 in series [1] of more than 31600 nM.
Take `Cc1ccc(N)c(-c2ccc(N3CCCCCC3)nc2)n1`: the EC50 in series [1] was 126 nM. In series [3], this compound yielded an Efficacy of 86%.
On to `O=C(c1cc(-c2cccc(Cl)c2Cl)cnc1N1CCCCCC1)N1CCOCC1`, for which the EC50 in series [1] was 79.4 nM; in series [2], 10000 nM. The compound also registered a CL in series [4] of more than 50 mL/min/g. Besides, the Efficacy in series [5] came out at 0.19%; in series [3] it was 67%.
In turn, `Cc1cnc(-c2ccc(N3CCCCCC3)nc2)c(C)c1` had an EC50 in series [1] of 1260 nM. In series [3], this compound returned an Efficacy of 102%.
Regarding `Fc1ccc(-c2ccc(N3CCOCC3)nc2)c(F)c1`, in series [1], the EC50 is more than 31600 nM.
In turn, `c1cc2occc2c(-c2ccc(N3CCCCCC3)nc2)n1` had an EC50 in series [1] of 63.1 nM. This compound registered a CL in series [4] of more than 50 mL/min/g. Also, the Efficacy in series [3] was 80%.
`Nc1cccnc1-c1ccc(N2CCCCCC2)nc1` had an EC50 in series [1] of 1000 nM. The compound further showed an Efficacy in series [3] of 91%.
Regarding `N#Cc1cc(N2CCCCCC2)ncc1-c1cccc(Cl)c1Cl`, the EC50 in series [1] was 100 nM; in series [2] it was 10000 nM. In addition, in series [4], the CL is more than 50 mL/min/g. Further, the Efficacy in series [5] amounted to 13%; in series [3], 86%.
For the compound `FC(F)(F)c1cc(N2CCCCCC2)ncc1-c1cccc(Cl)c1Cl`, the EC50 in series [1] was 2510 nM; in series [2], more than 31600 nM. Moreover, in series [3], the Efficacy was found to be 79%.
Consider `Clc1cccc(-c2ccc(N3CCOCC3)nc2)c1`, for which, in series [1], the EC50 was 1000 nM. The same compound gave an Efficacy in series [3] of 20%.
For `Clc1cccc(-c2ccc(N3CCSCC3)nc2)c1Cl` the same measures were 158 nM and 93%.
`Clc1cccc(-c2ccc(N3CCOCC3)nc2)c1Cl` gave a 50% effective concentration (EC50) in series [1] of 79.4 nM. Also, in series [4], the CL amounted to 9.5 mL/min/g. In series [3], this compound gave an Efficacy of 88%.
Consider `FC(F)(F)c1cc(-c2cccc(Cl)c2Cl)cnc1N1CCCCCC1`, for which the EC50 in series [1] is 6310 nM; in series [2] it was more than 31600 nM. Besides, the Efficacy in series [3] was 12%.
Regarding `O=C1CCCN1c1ccc(-c2cccc(Cl)c2Cl)cn1`, the EC50 in series [1] is 251 nM. The same compound displayed an Efficacy in series [3] of 59%.
Taken in the same sequence, the figures for `CC1CC(C)CN(c2ccc(-c3cccc(Cl)c3Cl)cn2)C1` (stereo not given) were 501 nM and 73%.
On to `Clc1cccc(-c2ccc(N3CCCOCC3)nc2)c1Cl`, for which the EC50 in series [1] is 63.1 nM. In addition, the CL in series [4] amounted to 27 mL/min/g. For the same compound, the Efficacy in series [3] came out at 87%.
Take `CN(C)C(=O)c1cc(-c2cccc(Cl)c2Cl)cnc1N1CCCCCC1`: the half-maximal effective concentration (EC50) in series [1] is 794 nM; in series [2], more than 31600 nM. In addition, in series [3], the Efficacy stood at 37%.
`Clc1ccc(-c2ccc(N3CCOCC3)nc2)cc1Cl` gave an EC50 in series [1] of 3980 nM. Moreover, in series [3], the Efficacy was 11%.
For `Cc1cccnc1-c1ccc(N2CCCCCC2)nc1` the same measures were 794 nM and 86%.
For `CCCCNc1ccc(-c2cccc(Cl)c2Cl)cn1` the same measures were 79.4 nM and 88%.
Taken in the same sequence, the figures for `Fc1cccc(-c2ccc(N3CCOCC3)nc2)c1F` were 251 nM and 58%.
The compound `Clc1cccnc1-c1ccc(N2CCCCCC2)nc1` had a concentration giving a half-maximal response (EC50) in series [1] of 501 nM. In series [3], this compound showed an Efficacy of 103%.
`C[C@@H]1CC[C@H](C)N1c1ccc(-c2cccc(Cl)c2Cl)cn1` had an EC50 in series [1] of 251 nM. Moreover, in series [4], the CL was 11 mL/min/g. The compound also displayed an Efficacy in series [3] of 37%.
In series [1], `Clc1ccc(-c2ccc(N3CCCCCC3)nc2)nc1` showed an EC50 of 100 nM. Moreover, the CL in series [4] came out at 13 mL/min/g. Moreover, in series [3], the Efficacy stood at 101%.
With `N#Cc1cc(-c2cccc(Cl)c2Cl)cnc1N1CCCCCC1`, the results for the half-maximal effective concentration (EC50) in series [1] and in series [2] were 3980 nM and more than 31600 nM, respectively. Moreover, in series [3], the Efficacy came out at 41%.
For `Clc1cnc(-c2ccc(N3CCCCCC3)nc2)c(Cl)c1`, in series [1], the concentration giving a half-maximal response (EC50) was 316 nM. Further, in series [3], the Efficacy is 100%.
For `N#Cc1cccnc1-c1ccc(N2CCCCCC2)nc1` the same measures were 398 nM and 75%.
In series [1], `O=C1CCC(=O)N1c1ccc(-c2cccc(Cl)c2Cl)cn1` showed an EC50 of 3980 nM. Moreover, the Efficacy in series [3] came out at 19%.

These data come from ChEMBL document CHEMBL1156134, “2-Amino-5-aryl-pyridines as selective CB2 agonists: synthesis and investigation of structure-activity relationships” (Bioorg Med Chem Lett, 2009).
